Results as given in PMC3967244 (Clinical cancer research : an official journal of the …, 2013).
Entries after “also recorded” stand apart in the source; their conditions may differ. Read-outs that look alike come from different tables or passages of the source. Marks after values point to notes of the source that are not given here.

Tests used:
[1] = tested on: patients with solid tumors; test: Phase I toxicity evaluation and dose escalation; details: four-hour infusion on days 1, 3 and 5 of a 21-day cycle
[2] = tested on: histone acetylation in PBMCs; details: day 1, 8 and 15 schedule, four hours; cited from earlier work
[3] = tested on: differentiated and anaplastic thyroid cancer cell lines; details: in vitro, cited from earlier work
[4] = tested on: RAI avidity of tumor tissue; details: cited from earlier work
[5] = tested on: cutaneous T-cell lymphoma (CTCL); details: two Phase II trials, 167 patients with CTCL; cited from earlier work
[6] = tested on: patients with solid tumors; details: in vivo
[7] = Plasma pharmacokinetics by LC/MS
solid tumors = test: Efficacy evaluation, objective disease response by RECIST v.1; format: in vivo, human
[8] = tested on: peripheral T-cell lymphoma (PTCL); details: two Phase II trials in PTCL; cited from earlier work
[9] = tested on: radioactive iodine uptake in refractory thyroid cancer; test: Radiolabeled sodium iodide; format: in vivo, human; details: six of eleven patients with thyroid cancer
[10] = tested on: acetylated histone H3 in patient PBMCs; test: Histone acetylation in peripheral blood mononuclear cells; format: in vivo, human
[11] = tested on: ST segment and T wave changes; test: ECG evaluation, graded ST segment and T wave changes; format: in vivo, human
[12] = 27 of 28 patients, days 1, 3, and 5 of cycle 1

For C/C=C1\NC(=O)[C@H]2CSSCC/C=C/[C@H](CC(=O)N[C@H](C(C)C)C(=O)N2)OC(=O)[C@H](C(C)C)NC1=O [romidepsin, Romidepsin], the “Dose identified as tolerable” value [1] is listed as 7 mg/m^2, the “Median increase in histone acetylation in PBMCs” value [2] is listed as 3 fold and the “Expression of thyroglobulin and NIS” value ([3]; nontoxic doses for 48 – 72 hours) is listed as “induced expression”. The Radioactive iodine uptake [3] was “increased radioactive iodine uptake”, the “Patients with increase in RAI avidity” value ([4]; patients scanned following romidepsin) was 2 of 16 and the “Overall response rate (ORR)” value [5] was 34–35%. For the same compound, the “Patients requiring dose reduction” value ([6]; human) was 7 of 9, the Anorexia ([6]; human, 21 day) was 4 # pts (%) and the “Grade 4 toxicities” value ([6]; human, 21 day) was “none in cycle 1”. For the same compound, the Hypocalcemia ([6]; human, 21 day) was 5 (18%) # pts (%), the Nausea ([6]; human, 21 day) was 3 # pts (%) and the “Recommended phase II dose (RP2D)” value ([6]; human, 21 day) was 7 mg/m^2. The Vomiting ([6]; human, 21 day) was 2 # pts (%), the Vomiting ([6]; human, 21 days) was 9 (32%) # pts (%) and the Febrile neutropenia [6] was “no episodes of febrile neutropenia”. For the same compound, the “Grade 3 nausea and vomiting at dose level 4” value [6] was “not considered dose-limiting”, the “Dose dependence of CMAX and AUCLAST” value ([7]; 1 to 9 mg/m^2) was “linear pharmacokinetics” and the “Inter-day patient variability (%CV) for AUCLAST” value [7, 12] was 2–59%. The “Inter-day patient variability (%CV) for CMAX” value [7, 12] was 5–68%, the Clearance ([7]; all dose levels) was “rapid clearance” and the “Plasma romidepsin concentration 14 hours after completing the infusion” value ([7]; most patients, lower limit of quantitation 2 ng/ml) was “below the lower limit of quantitation”. For the same compound, the RECIST-defined objective response (solid tumors; 28 patients with solid tumors, all dose levels) was “No RECIST-defined objective responses; also recorded: no patient met criteria for RECIST-defined objective response”, the “Patients with stable disease” value (solid tumors; of 28 patients, minimum of six cycles (18 weeks)) was “nine” and the “Range of duration of stable disease, thyroid cancer” value (solid tumors; six patients with thyroid cancer) was 26–112 weeks. For the same compound, the ORR [8] was 25–38%, the “RAI uptake on follow-up RAI scans” value [9] was “did not detect meaningful increases; also recorded: None demonstrated significant uptake; also recorded: did not demonstrate a significant increase in RAI uptake” and the “Median increase in histone acetylation over baseline” value ([10]; 4h time-point, 9.9 mg/m^2) was 3 fold. For the same compound, the “Increase in histone acetylation in PBMCs” value ([10]; 4h time-point, dose of 3.3 mg/m^2 or higher) was ≥ 2 fold, the “Accumulation in acetylation over the 5 days of treatment” value ([10]; days 1, 3, 5) was “no accumulation in acetylation” and the “Patients with no measurable increase in AcH3” value ([10]; dose level 1 or 2) was “Five of six”. For the same compound, the “Apparent threshold dose for histone acetylation in PBMCs” value ([10]; fold-increase in acetylation over pre-dose levels by cohort) was 3.3 mg/m^2, the “Patients with Grade 2 ST and T wave changes” value ([11]; 24-hour timepoint, dose level 5 (7 mg/m^2) and onward) was “over half of patients” and the “Grade 1 ST and T wave changes” value ([11]; by dose level) was “noted from the first dose level onward”. The “Grade 2 ST and T wave changes” value ([11]; dose levels above 5 mg/m^2) was “observed frequently”.

In the case of O=C(CCCCCCC(=O)Nc1ccccc1)NO [vorinostat], the “RAI in tumor tissue” value ([4]; one patient) is listed as “increased”.
